# According to US20190350898A1, “METHODS AND COMPOSITIONS FOR TREATMENT OF ALZHEIMER'S DISEASE” (Neurotrope Bioscience, Inc., priority 2018, published 2019):
# Entries after “also recorded” stand apart in the source; their conditions may differ.
# Columns and labels:
# Format in all cases: in vivo, human
# [1] = tested on: patients with advanced Alzheimer's disease; experiment: Safety and tolerability, treatment emergent adverse events (TEAEs), same trial; settings: 40 μg group
# Protocol: In a double-blind, randomized, placebo-controlled trial, bryostatin was administered by intravenous infusion (˜45 minutes) to patients with advanced Alzheimer's disease for 12 weeks at doses of 20 or 40 μg. Randomization was stratified at baseline by severe (MMSE-2, 4-9) and moderate (MMSE-2, 10-15) dementia, wherein MMSE-2 refers to Mini-Mental State Examination, version 2. The MMSE or Folstein test is a 30-point questionnaire that is used extensively in clinical and research settings to measure cognitive impairment. Low scores indicate greater impairment. […]
# Adults aged 55-85 with cognitive deficits present for at least 2 years, MMSE-2 of 4-15, inclusive, and a diagnosis of Alzheimer's dementia were randomly assigned to receive blinded intravenous infusions of bryostatin 24 μg or matching placebo at weeks 0 and 1. […] In one arm, the two 24 μg doses were followed by 20 μg doses at weeks 5, 7, 9 and 11 with the Severe Impairment Battery (SIB) measured at baseline and weeks 5, 9, 13, and 15. In a second arm, the two 48 μg doses at weeks 0 and 1 were followed by 40 μg doses at weeks 5, 7, 9, and 11 with the SIB measured at baseline and weeks 5, 9, 13, and 15. […] The first primary endpoint was safety and tolerability, assessed by treatment emergent adverse events (TEAEs) with a sample size of 150 subjects randomized 1:1:1. […]
# [2] = tested on: patients with advanced Alzheimer's disease; experiment: ADCS-ADL-SIV (ADCS-ADL Sev) secondary efficacy endpoint, same trial; settings: for ADCS-ADL LS Mean difference between 20 μg group and placebo: week 13
# Protocol: (§1) Adults aged 55-85 with cognitive deficits present for at least 2 years, MMSE-2 of 4-15, inclusive, and a diagnosis of Alzheimer's dementia were randomly assigned to receive blinded intravenous infusions of bryostatin 24 μg or matching placebo at weeks 0 and 1. The 24 μg and 48 μg doses during the first two weeks of the 20 and 40 μg protocols respectively were considered to be “loading” doses thought to be beneficial from prior experience with Compassionate Use trial patients. Nelson et al., Alzheimers Dis. 2017 58: 521-535. In one arm, the two 24 μg doses were followed by 20 μg doses at weeks 5, 7, 9 and 11 with the Severe Impairment Battery (SIB) measured at baseline and weeks 5, 9, 13, and 15. In a second arm, the two 48 μg doses at weeks 0 and 1 were followed by 40 μg doses at weeks 5, 7, 9, and 11 with the SIB measured at baseline and weeks 5, 9, 13, and 15. The subjects were stratified by MMSE-2 in two strata: Stratum 1 (4-9) and Stratum 2 (10-15). The first primary endpoint was safety and tolerability, assessed by treatment emergent adverse events (TEAEs) with a sample size of 150 subjects randomized 1:1:1. Although efficacy was the secondary measure, the primary efficacy endpoint was SIB improvement at week 13 evaluated using a mixed model for repeated measures. A secondary efficacy endpoint was ADCS-ADL Sev. The primary safety population included all subjects who received at least 1 dose of study drug, and efficacy was evaluated in a modified intent to treat (mITT) population that received at least 1 dose of study drug and had at least one treatment evaluation. Efficacy was evaluated both as a primary end-point in the modified intent-to-treat (mITT) population and also as a primary end point in a Completers population that included all patients that completed the entire protocols as described above.
# There was no evidence of treatment by efficacy of acetyl-cholinesterase-inhibitor (AChEI) use interaction. For SIB Total, the two sided p-value for the interaction between treatment and AChEI use was 0.8244 and the two sided p-value for the interaction between treatment, AChEI use and time was 0.9223. Similar results were seen when investigating the effect of AChEI use on treatment effect for ADCS-ADL with p-values of 0.5137 and 0.6256 (two sided), respectively. At week 13, the LS Mean difference between 20 μg group and placebo in SIB Total for AChEI non-users was 2.00 and users was 2.09, and in ADCS-ADL for AChEI non-users was −0.67 and users was 1.99.
# [3] = tested on: patients with advanced Alzheimer's disease; experiment: Severe Impairment Battery (SIB) change from baseline, double-blind randomized placebo-controlled trial; settings: for Mean slope of SIB over time, Unweight Slope / Mean slope of SIB over time, Weighted Slope: 20 μg Bryostatin; for Mean slope of SIB over time, Unweight Slope: baseline to week 15; for Mean slope of SIB over time, Weighted Slope: weighted by number of non-zero SIB scores; for SIB Total change from baseline, LS Mean (SE) / SIB Total, Difference vs. Placebo / SIB Total change from baseline, LS Mean: Bryostatin 20 μg
# Protocol: In a double-blind, randomized, placebo-controlled trial, bryostatin was administered by intravenous infusion (˜45 minutes) to patients with advanced Alzheimer's disease for 12 weeks at doses of 20 or 40 μg. Randomization was stratified at baseline by severe (MMSE-2, 4-9) and moderate (MMSE-2, 10-15) dementia, wherein MMSE-2 refers to Mini-Mental State Examination, version 2. The MMSE or Folstein test is a 30-point questionnaire that is used extensively in clinical and research settings to measure cognitive impairment. Low scores indicate greater impairment. Version 2 of the MMSE was published in 2010, expanding the original questionnaire's usefulness in populations with milder forms of cognitive impairment. […] Importantly, this cognitive improvement persisted and increased 30 days after all bryostatin dosing had been completed.
# as §1
# The SIB efficacy measurement at 30 days (week 15) post dosing—after all dosing had been completed (last dose administered at week 11)—was a pre-specified exploratory endpoint. Week 15 results were only included for subjects who were not re-randomized. The mixed model assumes missing at random, but order of enrollment in the trial was not random. Since order of enrollment was not random, the assumption of missing at random is not met. For this reason, only including week 15 for those who were not re-randomized is an appropriate way to estimate week 15 results, but not an appropriate way to estimate results at the earlier visits. For this reason, estimates up through week 13 are from a mixed model that only included data through week 13 and the week 15 estimates are from a separate model. Results were generated using a mixed model with repeated measures predicting change from baseline in SIB Total Score as the response variable and using baseline score, baseline MMSE strata, treatment, visit (categorical), and visit (treatment) as predictors. […]
# [4] = Week 5, Completer, With Memantine
# [5] = Week 5, Completer, Without Memantine
# [6] = Week 9, Completer, With Memantine
# [7] = Week 9, Completer, Without Memantine
smiles,measurement,setting,value
"CCC/C=C/C=C/C(=O)O[C@H]1/C(=C/C(=O)OC)C[C@H]2C[C@H]([C@@H](C)O)OC(=O)C[C@H](O)C[C@@H]3C[C@H](OC(C)=O)C(C)(C)[C@](O)(C[C@@H]4C/C(=C/C(=O)OC)C[C@H](/C=C/C(C)(C)[C@]1(O)O2)O4)O3 [Bryostatin, bryostatin-1]",Safety results (adverse events),[1],more adverse events
same,ADCS-ADL efficacy,[2]; 20 μg dose,significant
same,ADCS-ADL difference from placebo,"[2]; 20 μg dose, completers group",1.6
same,ADCS-ADL difference from placebo,"[2]; 20 μg dose, mITT group",1.4
same,"ADCS-ADL, subgroups with and without memantine",[2]; memantine (Namenda) as background SOC therapy or not,not significantly different above placebo
same,ADCS-ADL LS Mean difference between 20 μg group and placebo,[2]; AChEI non-users,−0.67
same,ADCS-ADL LS Mean difference between 20 μg group and placebo,[2]; AChEI users,1.99
same,"Mean slope of SIB over time, Unweight Slope","[3]; first column group (strata head not given, probably memantine naïve)",0.382
same,"Mean slope of SIB over time, Unweight Slope","[3]; second column group (strata head not given, probably memantine exposed)",−0.143
same,"Mean slope of SIB over time, Weighted Slope",[3]; first column group (probably memantine naïve),0.363
same,"Mean slope of SIB over time, Weighted Slope",[3]; second column group (probably memantine exposed),−0.099
same,SIB improvement at week 5 compared to placebo and baseline,"[3]; 20 μg arm, week 5, after 3 doses",significant improvement
same,SIB improvement compared to placebo,"[3]; 20 μg dose, patients on memantine background therapy",no SIB improvement; also recorded: did not occur
same,SIB improvement versus baseline and placebo,"[3]; 20 μg dose, throughout the 13-week trial",sustained improvements in SIB scores; also recorded: sustained efficacy; also recorded: sustained improvement in SIB
same,SIB improvement versus baseline and placebo,[3]; 40 μg dose,lack of efficacy; also recorded: no SIB improvement
same,"SIB Total change from baseline, LS Mean (SE)","[3]; Week 5, Completer, MMRM",1.67 (0.964)
same,"SIB Total, Difference vs. Placebo","[3]; Week 5, Completer, MMRM",4.00
same,"SIB Total change from baseline, LS Mean",[3]; [4],0.61
same,"SIB Total, Difference vs. Placebo",[3]; [4],2.94
same,"SIB Total change from baseline, LS Mean",[3]; [5],3.22
same,"SIB Total, Difference vs. Placebo",[3]; [5],5.38
same,"SIB Total change from baseline, LS Mean (SE)","[3]; Week 5, FAS, MMRM",1.18 (1.102)
same,"SIB Total, Difference vs. Placebo","[3]; Week 5, FAS, MMRM",2.96
same,"SIB Total change from baseline, LS Mean","[3]; Week 5, FAS, With Memantine",0.26
same,"SIB Total, Difference vs. Placebo","[3]; Week 5, FAS, With Memantine",1.96
same,"SIB Total change from baseline, LS Mean","[3]; Week 5, FAS, Without Memantine",2.74
same,"SIB Total, Difference vs. Placebo","[3]; Week 5, FAS, Without Memantine",4.48
same,"SIB Total change from baseline, LS Mean (SE)","[3]; Week 9, Completer, MMRM",1.28 (1.119)
same,"SIB Total, Difference vs. Placebo","[3]; Week 9, Completer, MMRM",1.85
same,"SIB Total change from baseline, LS Mean",[3]; [6],−0.16
same,"SIB Total, Difference vs. Placebo",[3]; [6],0.90
same,"SIB Total change from baseline, LS Mean",[3]; [7],3.34
same,"SIB Total, Difference vs. Placebo",[3]; [7],2.66
same,"SIB Total change from baseline, LS Mean (SE)","[3]; Week 9, FAS, MMRM",0.94 (1.149)
same,"SIB Total, Difference vs. Placebo","[3]; Week 9, FAS, MMRM",1.03
same,"SIB Total change from baseline, LS Mean","[3]; Week 9, FAS, With Memantine",−0.33
same,"SIB Total, Difference vs. Placebo","[3]; Week 9, FAS, With Memantine",0.09
same,"SIB Total change from baseline, LS Mean","[3]; Week 9, FAS, Without Memantine",2.95
same,"SIB Total, Difference vs. Placebo","[3]; Week 9, FAS, Without Memantine",2.08
same,"SIB Total change from baseline, LS Mean (SE)","[3]; Week 13, Completer, MMRM",1.51 (1.118)
same,"SIB Total, Difference vs. Placebo","[3]; Week 13, Completer, MMRM",2.63
same,"SIB Total, Difference vs. Placebo","[3]; Week 13, Completer, MMRM, listed as bryostatin",2.6
